{
  "source": "patent US20240335464A1",
  "about": "“ADMINISTRATION OF STING AGONIST, CHECKPOINT INHIBITORS, AND RADIATION” (Takeda Pharmaceutical Company Limited, priority 2020, published 2024)",
  "key": {"[1]": {"test_system": "EMT6 mouse breast carcinoma syngeneic tumor", "test": "Study 1: EMT6 mouse syngeneic tumor model, subcutaneous, anti-tumor efficacy", "assay_type": "in vivo, female BALB/c mice", "details": "for GRI (%) Day 19: vs vehicle; for Number of Complete Regressions: n=10/group, 72-day study; for Combination Assessment / Synergy Score %: data through Day 19", "from_the_text": "(§1) Studies 1 and 2: EMT6 is a mouse breast carcinoma cell line. EMT6 mouse syngeneic tumor model was generated by subcutaneous (sc) inoculation with 0.2×10^6 EMT6 cells (cell suspension) in nine to ten week old female BALB/c mice (Vital River Laboratory Animal Technology Co., Ltd., Beijing, China) in the flank. When the mean tumor volume reached 60 mm^3 in Study 1 and 75 mm^3 in Study 2 the animals were randomized into one vehicle control and seven treatment groups (n=10/group). Mice were then dosed with vehicle (phosphate buffered saline (PBS)) or Compound No. 14 or 10 Gy Radiation or Compound No. 14 plus 10 Gy Radiation over an eight-day period. Tumor growth and body weight were measured three times per week during the treatment and post-treatment periods. Mice were humanely euthanized once they reached their humane endpoint or until study termination on day 72 (Study 1) or on day 60 (Study 2).\n(§2) Studies 1 and 2: A 0.1 mg/mL stock solution of Compound No. 14 was formulated in PBS and administered intravenously (IV) based on exact animal body weight on each day of treatment, using a dosing volume of 10 mL/kg body weight. Final doses received were 1.0 mg/kg. […] Compound No. 14 was administered on a Q3D schedule for 3 doses (Day 2, 5 and 8) in single agent treatment group and in combination treatment groups. Dose formulation of Compound No. 14 was prepared once and utilized for dosing on Days 2, 5 and 8.\n(§3) Radiation treatment for Studies 1 and 2 was performed using RadSource RS 2000 X-ray irradiator (Rad Source Technologies). Animals received 1.046 Gy/minute of radiation and approximately 9.5 min was needed to reach a 10 Gy dose delivery. Animals were anesthetized prior to placement in irradiation chamber using isoflurane and checked for reflexes. Radiation beam was focused on tumor with manual positioning. Radiation was administered via manual positioning in a single 10 Gy dose on either day 0, 2 or 4 in Study 1, and on either day 0, 1, 2, 3 or 4 in Study 2.\n(§4) Tumors were measured three times weekly using vernier calipers. Tumor volumes were calculated using standard equation: V=W^2×L/2, where V=volume, W=width, and L=length for the tumor. When mean tumor volumes reached approximately 60 mm^3 for Study 1, 75 mm^3 for Study 2, and 110 mm^3 for Study 3, mice were randomized into eight groups (n=10/group) in Studies 1 and 2, and nine groups (n=8/group) in Study 3. These groups were then dosed with vehicle (PBS), Compound No. 14, Radiation, anti-mPD-1 or isotype control, or combinations of these agents as described in Tables 1a, 2a, and 3a. Tumor size and body weight were measured three times a week for the duration of each study. Mice were euthanized for Studies 1 and 2 when their tumor volumes reached greater than 10% of their body weight or when an individual tumor exceeded the humane end-point for size (>2 cm) or when an animal lost 20% of their body weight relative to the start of the study or lost 15% of their body weight in any 24 hr time frame. Mice were euthanized in Study 3 when tumor volume exceeded 2,000 mm^3 or an animal lost more than 20% of their body weight relative to the start of study.\n(§5) Growth Rate Inhibition: The differences in the tumor growth trends over time between pairs of treatment groups were assessed by fitting each animal's data to a simple exponential growth model and comparing the mean growth rates of the two groups, as described in more detail below. The difference in the growth rates was summarized by the GRI, which is the reduction in growth rate experienced by the treatment group relative to that of the reference group, expressed as a fraction of the vehicle growth rate.\n(§6) μT and μC are the mean tumor growth rates for the treatment and reference groups, respectively. μV is the mean tumor growth rate for the vehicle group, which in most cases is the same as the reference group.\n(§7) A GRI greater than 100% is interpreted as tumor regression when the vehicle group is the same as the reference group. […]"}, "[2]": {"test_system": "EMT6 mouse breast carcinoma syngeneic tumor", "test": "Study 2: EMT6 mouse syngeneic tumor model, subcutaneous, anti-tumor efficacy", "assay_type": "in vivo, female BALB/c mice", "details": "for GRI (%) Day 21: vs vehicle; for Complete Regressions: n=10/group, 60-day study; for Combination Assessment / Synergy Score %: data through Day 21", "from_the_text": "as §1, §2, §3, §4, §5, §6, §7"}, "[3]": {"details": "Compound No. 14 1.0 mg/kg IV Q3D×3 (Days 2, 5, 8), single agent"}, "[4]": {"details": "Compound No. 14 1.0 mg/kg IV Q3D×3 + 10Gy Radiation (Day 0)"}, "[5]": {"details": "Compound No. 14 1.0 mg/kg IV Q3D×3 + 10Gy Radiation (Day 2)"}, "[6]": {"details": "Compound No. 14 1.0 mg/kg IV Q3D×3 + 10Gy Radiation (Day 4)"}, "[7]": {"details": "Compound No. 14 + Radiation (10 Gy) Day 0"}, "[8]": {"details": "Compound No. 14 + Radiation (10 Gy) Day 2"}, "[9]": {"details": "Compound No. 14 + Radiation (10 Gy) Day 4"}, "[10]": {"details": "Compound No. 14 1.0 mg/kg IV Q3D×3 + Radiation (10Gy) (Day 2)"}, "[11]": {"details": "Compound No. 14 1.0 mg/kg IV Q3D×3 + Radiation (10Gy) (Day 3)"}, "[12]": {"details": "Compound No. 14 1.0 mg/kg IV Q3D×3 + Radiation (10Gy) (Day 4)"}, "[13]": {"details": "Compound No. 14 + Radiation (10Gy) (Day 0)"}, "[14]": {"details": "Compound No. 14 + Radiation (10Gy) (Day 1)"}, "[15]": {"details": "Compound No. 14 + Radiation (10Gy) (Day 2)"}, "[16]": {"details": "Compound No. 14 + Radiation (10Gy) (Day 3)"}, "[17]": {"details": "Compound No. 14 + Radiation (10Gy) (Day 4)"}},
  "data": [
    {"smiles": "Nc1ncnc2c1ncn2[C@@H]1O[C@@H]2COP(=O)(S)O[C@@H]3[C@H](O)[C@@H](COP(=O)(S)O[C@H]2[C@H]1F)O[C@H]3n1cc(F)c2c(=O)[nH]cnc21", "note": "(stereo partly drawn) [Compound No. 14]", "values": [
      {"measurement": "GRI (%) Day 19", "setting": "[1]; [3]", "value": 30, "unit": "%"},
      {"measurement": "Number of Complete Regressions", "setting": "[1]; [4]", "value": 1},
      {"measurement": "GRI (%) Day 19", "setting": "[1]; [4]", "value": 82, "unit": "%"},
      {"measurement": "Number of Complete Regressions", "setting": "[1]; [5]", "value": 1},
      {"measurement": "GRI (%) Day 19", "setting": "[1]; [5]", "value": 60, "unit": "%"},
      {"measurement": "Number of Complete Regressions", "setting": "[1]; [6]", "value": 2},
      {"measurement": "GRI (%) Day 19", "setting": "[1]; [6]", "value": 67, "unit": "%"},
      {"measurement": "Number of Complete Regressions", "setting": "[1]; Compound No. 14 1.0 mg/kg IV Q3D×3, single agent", "value": 0},
      {"measurement": "Combination Assessment", "setting": "[1]; [7]", "value": "Additive"},
      {"measurement": "Synergy Score %", "setting": "[1]; [7]", "value": "−20", "unit": "%"},
      {"measurement": "Combination Assessment", "setting": "[1]; [8]", "value": "Additive"},
      {"measurement": "Synergy Score %", "setting": "[1]; [8]", "value": 7, "unit": "%"},
      {"measurement": "Combination Assessment", "setting": "[1]; [9]", "value": "additive"},
      {"measurement": "Synergy Score %", "setting": "[1]; [9]", "value": "−10", "unit": "%"},
      {"measurement": "Combination Assessment", "setting": "[1]; Compound No. 14 + Radiation (10 Gy) Day 4, listed as Compound No.14", "value": "Additive"},
      {"measurement": "GRI (%) Day 21", "setting": "[2]; [3]", "value": 20, "unit": "%"},
      {"measurement": "GRI (%) Day 21", "setting": "[2]; Compound No. 14 1.0 mg/kg IV Q3D×3 + Radiation (10Gy) (Day 0)", "value": 60, "unit": "%"},
      {"measurement": "GRI (%) Day 21", "setting": "[2]; Compound No. 14 1.0 mg/kg IV Q3D×3 + Radiation (10Gy) (Day 1)", "value": 62, "unit": "%"},
      {"measurement": "Complete Regressions", "setting": "[2]; [10]", "value": 2},
      {"measurement": "GRI (%) Day 21", "setting": "[2]; [10]", "value": 68, "unit": "%"},
      {"measurement": "Complete Regressions", "setting": "[2]; [11]", "value": 4},
      {"measurement": "GRI (%) Day 21", "setting": "[2]; [11]", "value": 64, "unit": "%"},
      {"measurement": "Complete Regressions", "setting": "[2]; [12]", "value": 2},
      {"measurement": "GRI (%) Day 21", "setting": "[2]; [12]", "value": 60, "unit": "%"},
      {"measurement": "Combination Assessment", "setting": "[2]; [13]", "value": "additive"},
      {"measurement": "Synergy Score %", "setting": "[2]; [13]", "value": "−20", "unit": "%"},
      {"measurement": "Combination Assessment", "setting": "[2]; Compound No. 14 + Radiation (10Gy) (Day 0), listed as Compound No.14", "value": "Additive"},
      {"measurement": "Combination Assessment", "setting": "[2]; [14]", "value": "Additive"},
      {"measurement": "Synergy Score %", "setting": "[2]; [14]", "value": "−22", "unit": "%"},
      {"measurement": "Combination Assessment", "setting": "[2]; [15]", "value": "synergistic"},
      {"measurement": "Synergy Score %", "setting": "[2]; [15]", "value": "−28", "unit": "%"},
      {"measurement": "Combination Assessment", "setting": "[2]; Compound No. 14 + Radiation (10Gy) (Day 2), listed as Compound No.14", "value": "Synergistic"},
      {"measurement": "Combination Assessment", "setting": "[2]; [16]", "value": "Additive"},
      {"measurement": "Synergy Score %", "setting": "[2]; [16]", "value": "−24", "unit": "%"},
      {"measurement": "Combination Assessment", "setting": "[2]; [17]", "value": "Additive"},
      {"measurement": "Synergy Score %", "setting": "[2]; [17]", "value": "−20", "unit": "%"}
    ]}
  ]
}
